Test results reported in ChEMBL document CHEMBL5727849, “Piperidinone formyl peptide 2 receptor and formyl peptide 1 receptor agonists” (2020).

Tests used:
fMet-Leu-Phe receptor = molecular target: T1, fMet-Leu-Phe receptor (Homo sapiens, UniProt P21462); assay: (§1) cAMP Assay: FPR2 and FPR1 Cyclic Adenosine Monophosphate (cAMP) Assays. A mixture of forskolin (5 μM final for FPR2 or 10 μM final for FPR1) and IBMX (200 μM final) were added to 384-well Proxiplates (Perkin-Elmer) pre-dotted with test compounds in DMSO (1% final) at final concentrations in the range of 0.020 nM to 100 μM. Chinese Hamster Ovary cells (CHO) overexpressing human FPR1 or human FPR2 receptors were cultured in F-12 (Ham's) medium supplemented with 10% qualified FBS, 250 μg/ml zeocin and 300 μg/ml hygromycin (Life Technologies). Reactions were initiated by adding 2,000 human FPR2 cells per well or 4,000 human FPR1 cells per well in Dulbecco's PBS (with calcium and magnesium) (Life Technologies) supplemented with 0.1% BSA (Perkin-Elmer). The reaction mixtures were incubated for 30 min at room temperature. The level of intracellular cAMP was determined using the HTRF HiRange cAMP assay reagent kit (Cisbio) according to manufacturer's instruction. Solutions of cryptate conjugated anti-cAMP and d2 flurorophore-labelled cAMP were made in a supplied lysis buffer separately. Upon completion of the reaction, the cells were lysed with equal volume of the d2-cAMP solution and anti-cAMP solution. After a 1-h room temperature incubation, time-resolved fluorescence intensity was measured using the Envision (Perkin-Elmer) at 400 nm excitation and dual emission at 590 nm and 665 nm.; format: cell-based
T1 sequence (P21462 whole entry): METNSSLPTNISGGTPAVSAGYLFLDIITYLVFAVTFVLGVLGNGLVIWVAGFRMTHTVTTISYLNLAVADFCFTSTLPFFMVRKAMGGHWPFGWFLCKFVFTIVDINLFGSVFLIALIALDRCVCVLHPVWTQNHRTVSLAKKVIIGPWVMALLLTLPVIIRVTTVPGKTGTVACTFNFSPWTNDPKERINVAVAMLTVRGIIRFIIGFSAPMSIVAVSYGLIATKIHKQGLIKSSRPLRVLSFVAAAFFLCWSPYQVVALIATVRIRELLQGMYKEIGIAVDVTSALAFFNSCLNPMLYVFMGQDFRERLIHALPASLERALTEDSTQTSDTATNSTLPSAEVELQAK

[1] = molecular target: T2, N-formyl peptide receptor 2 (Homo sapiens, UniProt P25090); assay: as §1; format: cell-based
T2 sequence (P25090 whole entry): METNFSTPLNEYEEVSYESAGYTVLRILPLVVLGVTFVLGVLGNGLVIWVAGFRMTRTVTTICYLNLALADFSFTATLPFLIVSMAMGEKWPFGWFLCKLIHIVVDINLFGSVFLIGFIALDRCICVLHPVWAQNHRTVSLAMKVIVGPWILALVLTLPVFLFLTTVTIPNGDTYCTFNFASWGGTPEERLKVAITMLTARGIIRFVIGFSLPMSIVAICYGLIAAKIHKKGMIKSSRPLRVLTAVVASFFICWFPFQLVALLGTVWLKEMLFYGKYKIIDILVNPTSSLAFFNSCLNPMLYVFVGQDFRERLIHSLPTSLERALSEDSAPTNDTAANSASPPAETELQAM

EC50 (fMet-Leu-Phe receptor) [nM] | EC50 [1] [nM] | SMILES
1700 | 840 | NC(=O)c1ccccc1-c1ccc(N2CCC[C@@H](NC(=O)Nc3ccc(F)c(F)c3)C2=O)cc1
14 | 11 | O=C(Nc1ccc(Cl)cc1)N[C@@H]1CCCN(c2ccc(-c3c(Cl)cccc3Cl)cc2)C1=O
